# Experimental data: article PMC8510480, “Searching Anti-Zika Virus Activity in 1H-1,2,3-Triazole Based Compounds” (Molecules, 2021)
# pIC50: −log10 of the molar value. Like-named read-outs stand apart in the source and are kept apart here.
# Test system: ZIKV
# Assay: Post-infection test with ZIKV in Vero cells
# Assay type: cell-based, Zika virus
# Settings: for inhibition at 136.9 µM: CC20 (4b 136.90 µM; 6MMPr 60.50 µM); for inhibition at 136.9 µM / inhibition at 68.45 µM / inhibition at 34.23 µM / inhibition at 17.11 µM: read-out: % Viral Inhibition; for inhibition at 68.45 µM: CC20/2 (4b 68.45 µM; 6MMPr 30.25 µM); for inhibition at 34.23 µM: CC20/4 (4b 34.23 µM; 6MMPr 15.13 µM); for inhibition at 17.11 µM: CC20/8 (4b 17.11 µM; 6MMPr 7.6 µM)
# Experimental: We then investigated the activity of compound 4b after ZIKV infection in cells. As already noted in the screening test, 4b reduced ZIKV growth to levels similar to 6MMPr, a positive control previously described by our group. As in the pre-treatment test, four different concentrations were used, with the maximum being CC20 (136.90, 68.45, 34.22 and 17.11 µM). […] It is worth highlighting the constant decrease in the viral titer, even in lower concentrations, while the positive control 6MMPr reduces it only in the highest concentrations.
# Statistical analysis compared the concentrations of each compound at each collection time (3 d.p.i. and 5 d.p.i.) with a t-test.
# Figure 6 Comparison of anti-ZIKV activity between 6MMPr and 4b after three- and five-days post-infection (d.p.i.). 6MMPr and compound 4b were submitted to a post-infection test when Vero cells was infected with ZIKV at MOI 0.1 for 2 h then treated with compounds. Concentrations used in the test corresponded to CC20 (4b = 136.90 µM; 6MMPr = 60.50 µM), CC20/2 (4b = 68.45 µM; 6MMPr = 30.25 µM), CC20/4 (4b = 34.22 µM; 6MMPr = 15.13 µM) and CC20/8 (4b = 17.11 µM; 6MMPr = 7.56 µM). The experiment was done in triplicates and values are the mean and the SD. Statistical analysis was made between compounds using t-test on GraphPad Prism program. * = significative; ns = not statistically significant for p < 0.05. (a) 3 d.p.i. from both compounds. (b) 5 d.p.i. from both compounds.
# 96-well plates with 1 × 10^4 cell/well were used in this assay and prepared 24 h previously. Seven serial dilutions of the virus were prepared in DMEM + 2% FBS culture medium. After removing the culture medium from the plate, 50 µL of each dilution was added to the wells in several repetitions. The plate was incubated at 37 °C and 5% atm CO2 for 1 h. After this interval, each well of the plate received an additional 100 µL of DMEM + 2% FBS culture medium. The plate was incubated again, in the same parameters, for 5 days. Some columns of the plate were selected for use as a cell control (culture medium only, no virus). The reading was performed in an inverted optical microscope AE2000, Motic (Motic, Kowloon Bay, Hong Kong) counting positives wells by the presence of cytopathic effect and the determination of the sample title was performed with the aid of the Microsoft Office Excel program (Microsoft® Office, Redmond, WA, USA).
# 48-well plates with 2.5 × 10^4 cells/well were prepared 24 h previously. A ZIKV solution at MOI 0.1 was inoculated into the wells and the cells incubated at 37 °C and 5% CO2 atmosphere. After 2 h, the culture medium was removed, and the wells were washed with 1X PBS. 2:1 dilution of 4b (136.90 µM, 68.45 µM, 34.22 µM and 17.11 µM) and 6MMPr (60.50 µM, 30.25 µM, 15.13 µM and 7.56 µM) were added in triplicate. The cells were again incubated for 72 h and 120 h. The supernatants from the wells were collected and titrated.
compound,measurement,setting,value
O=C1C(Br)=C(NCc2cn(CN3C(=O)c4ccccc4C3=O)nn2)C(=O)c2ccccc21 [Compound 4b],inhibition at 136.9 µM,"Zika virus, 72 h, 3 d.p.i.",94.9%
same,inhibition at 68.45 µM,"Zika virus, 72 h, 3 d.p.i.",85.6%
same,inhibition at 34.23 µM,"Zika virus, 72 h, 3 d.p.i.",85.8%
same,inhibition at 17.11 µM,"Zika virus, 72 h, 3 d.p.i., negative = increased virus titer compared to control",88.8%
same,inhibition at 136.9 µM,"Zika virus, 120 h, 5 d.p.i.",97.5%
same,inhibition at 68.45 µM,"Zika virus, 120 h, 5 d.p.i.",93.7%
same,inhibition at 34.23 µM,"Zika virus, 120 h, 5 d.p.i.",90.8%
same,inhibition at 17.11 µM,"Zika virus, 120 h, 5 d.p.i.",96.8%
same,pIC50,"Zika virus, Vero, read-out: IC50 (50% inhibition concentration, virus replication)",3.84
same,% Viral Inhibition,"post-infection test, Table 4, concentration and time not stated",91.1%
same,effect on growth of the virus (viral titer),"post-infection, four concentrations from CC20 to CC20/8, 3 and 5 d.p.i.",inhibits the growth of the virus at all concentrations used
same,SI (selectivity index),ratio between the CC50 and IC50 values,2.3
